Laboratory results taken from patent US20110230467A1, “4,6-DIAMINONICOTINAMIDE COMPOUND” (Astellas Pharma Inc., priority 2008, published 2011).

target: T1, human JAK3 kinase domain (Homo sapiens, UniProt P52333); experiment: JAK3 Inhibition Test (Test Example 1); type: biochemical; conditions: purified human JAK3 kinase domain; 20 μM ATP in substrate solution; absorbance at 450 nm; read-out: IC50 (JAK3 inhibitory activity)
T1 construct: attached to the N-terminal of the 796-1124 (C-terminal) fragment of the human JAK3 protein; His-tag (N); purchased Carna Biosciences, Inc. (Kobe, Japan); host or cells: baculovirus expression system
Description: (1) Preparation of Human JAK3
Purified human JAK3 kinase domain was purchased from Carna Biosciences, Inc. (Kobe, Japan). This was afforded as described below. His-tag (41 kDa) was attached to the N-terminal of the 796-1124 (C-terminal) fragment of the human JAK3 protein (accession number #NM_000215), expressed using a baculovirus expression system, and then purified using Ni-NTA affinity column chromatography.
(2) Measurement of JAK3 Activity
As substrates, Biotin-Lyn-Substrate-2 (Biotin-XEQED EPEGF YFEWL EPE), X=ε-Acp (Peptide Institute, Inc., Osaka, Japan) and ATP were used. As an assay buffer, 15 mM Tris-HCl, pH 7.5, containing 0.01% Tween 20, and 2 mM DTT (dithiothreitol) was used. Normally, 20 μL of a substrate solution (an assay buffer containing 627 nM Biotin-Lyn-Substrate-2, 20 μM ATP, and 25 mM MgCl2), an assay buffer containing 10 μL of a compound to be tested, and 20 μL of an enzyme solution were added to a microplate, and stirred sufficiently.
After incubation at room temperature for one hour, the plate was washed with a cleaning buffer (50 mM Tris-HCl pH 7.5, 150 mM NaCl, 0.02% Tween 20), and a blocking buffer (a cleaning buffer containing 0.1% Bovine Serum Albumin) was added to the plate. After incubation at room temperature for 30 minutes, the blocking buffer was removed, and an HRP-PY-20 solution (afforded by diluting the HRP-PY-20 solution with the blocking buffer 500 times) was added. After incubation at room temperature for 30 minutes, the plate was washed four times, and a TMB substrate solution (Sigma) was added to the plate. After incubation at room temperature for 4 minutes, 1 M sulfuric acid was added to stop the reaction. Enzyme activity was measured as an absorbance at 450 nm. The JAK3 inhibitory activity of the test compound was calculated assuming that the concentration of the test compound inhibiting JAK3 activity by 50% is an IC50 value.

T1 sequence (P52333 796-1124): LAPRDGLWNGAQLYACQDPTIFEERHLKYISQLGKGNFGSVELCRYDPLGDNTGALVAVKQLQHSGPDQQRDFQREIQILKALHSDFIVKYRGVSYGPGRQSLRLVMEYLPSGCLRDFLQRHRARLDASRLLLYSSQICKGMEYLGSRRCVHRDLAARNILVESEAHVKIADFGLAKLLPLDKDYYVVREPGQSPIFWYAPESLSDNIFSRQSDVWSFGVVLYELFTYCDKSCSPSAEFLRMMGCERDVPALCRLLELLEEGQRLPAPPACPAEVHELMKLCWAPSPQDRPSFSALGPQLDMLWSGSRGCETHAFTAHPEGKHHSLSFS

For `N#Cc1ccc(N2CC[C@@H](Nc3cc(Nc4cnccn4)ncc3C(N)=O)[C@@H](F)C2)nc1` [Example 5-7], which IC50 is on record?
Its IC50 is 0.21 nM.

With `Cc1nccc(Nc2cc(NC3CCN(c4ccc(C#N)cc4)CC3)c(C(N)=O)cn2)n1` [Example 5-8] as the compound, how does the IC50 read?
Its IC50 is 0.8 nM.

With `Cc1nccc(Nc2cc(NC3CCN(c4ccc(C#N)cn4)CC3)c(C(N)=O)cn2)n1` [Example 5-9] as the compound, how does the IC50 read?
Its IC50 is 0.36 nM.

How did the IC50 turn out when `N#Cc1ccc(N2CC[C@@H](Nc3cc(Nc4ccncn4)ncc3C(N)=O)[C@@H](F)C2)nc1` [Example 5-10] was run?
Its IC50 is 0.29 nM.

With `N#Cc1ccc(N2CC[C@@H](Nc3cc(Nc4cnccn4)ncc3C(N)=O)[C@@H](F)C2)nn1` [Example 5-11] as the compound, how does the IC50 read?
Its IC50 is 0.34 nM.

Which IC50 does the source give for `N#Cc1cnc(N2CC[C@@H](Nc3cc(Nc4ccncn4)ncc3C(N)=O)[C@@H](F)C2)cn1` [Example 5-15] here?
Its IC50 is 1 nM.

How did the IC50 turn out when `N#Cc1ccc(N2CCC(Nc3cc(Nc4ccncn4)ncc3C(N)=O)CC2)nn1` [Example 5-18] was run?
Its IC50 is 1.1 nM.

How did the IC50 turn out when `Cc1cnc(Nc2cc(NC3CCN(c4ccc(C#N)nn4)CC3)c(C(N)=O)cn2)cn1` [Example 5-22] was run?
The IC50 was 2 nM.

For `N#Cc1ccc(N2CCC(Nc3cc(Nc4ccncn4)ncc3C(N)=O)CC2)cn1` [Example 5-25], which IC50 is on record?
The IC50 was 0.24 nM.

With `Cc1nccc(Nc2cc(N[C@@H]3CCN(c4ccc(C#N)cn4)C[C@@H]3F)c(C(N)=O)cn2)n1` [Example 5-26] as the compound, how does the IC50 read?
The IC50 was 0.39 nM.

`N#Cc1ccc(N2CCC(Nc3cc(Nc4ccc(N5CCCC5=O)cn4)ncc3C(N)=O)CC2)nc1` [Example 5-46] was tested. Which IC50 did it give?
The IC50 was 0.86 nM.

How did the IC50 turn out when `N#Cc1ccc(N2CC[C@@H](Nc3cc(Nc4ccc(N5CCCCC5=O)cn4)ncc3C(N)=O)[C@@H](F)C2)nc1` [Example 5-55] was run?
Its IC50 is 0.74 nM.

For `N#Cc1ccc(N2CCC(Nc3cc(Nc4ccc(N5C(=O)[C@H]6CC[C@@H]5C6)cn4)ncc3C(N)=O)CC2)nc1` [Example 5-67], which IC50 is on record?
The IC50 was 0.9 nM.

Which IC50 does the source give for `N#Cc1ccc(N2CC[C@@H](Nc3cc(Nc4ccccn4)ncc3C(N)=O)[C@@H](F)C2)nc1` [Example 5-72] here?
The IC50 was 0.14 nM.

`COCc1ccc(Nc2cc(N[C@@H]3CCN(c4ccc(C#N)cn4)C[C@@H]3F)c(C(N)=O)cn2)nc1` [Example 5-73] was tested. Which IC50 did it give?
The IC50 was 0.24 nM.

Which IC50 does the source give for `NC(=O)c1cnc(Nc2ccc(C(=O)N3CCCC3)cn2)cc1NCc1c(F)cccc1F` [Example 8-6] here?
The IC50 was 0.74 nM.

With `COC1CCN(C(=O)c2ccc(Nc3cc(NCc4c(F)cccc4F)c(C(N)=O)cn3)nc2)CC1` [Example 8-7] as the compound, how does the IC50 read?
Its IC50 is 0.8 nM.

`CN1CCN(C(=O)c2ccc(Nc3cc(NCc4c(F)cccc4F)c(C(N)=O)cn3)nc2)CC1` [Example 8-8] was tested. Which IC50 did it give?
Its IC50 is 1 nM.

`CN1CCCN(C(=O)c2ccc(Nc3cc(NCc4c(F)cccc4F)c(C(N)=O)cn3)nc2)CC1` [Example 8-9] was tested. Which IC50 did it give?
The IC50 was 1.6 nM.

For `NC(=O)c1cnc(Nc2cnccn2)cc1NCc1c(F)ccc(F)c1F` [Example 12-50], which IC50 is on record?
Its IC50 is 1 nM.

`NC(=O)c1cnc(Nc2ccc(N3CCCCC3=O)cn2)cc1NCc1c(F)ccc(F)c1F` [Example 12-54] was tested. Which IC50 did it give?
Its IC50 is 0.69 nM.

Which IC50 does the source give for `CN1CCN(c2ccc(Nc3cc(NCc4c(F)ccc(F)c4F)c(C(N)=O)cn3)nc2)C(=O)C1` [Example 12-73] here?
The IC50 was 0.58 nM.

How did the IC50 turn out when `CN1CCC(=O)N(c2ccc(Nc3cc(NCc4c(F)ccc(F)c4F)c(C(N)=O)cn3)nc2)CC1` [Example 12-74] was run?
Its IC50 is 0.74 nM.

For `NC(=O)c1cnc(Nc2ccc(N3CCOCC3=O)cn2)cc1NCc1c(F)ccc(F)c1F` [Example 12-76], which IC50 is on record?
Its IC50 is 0.43 nM.

`NC(=O)c1cnc(Nc2ccc(N3C(=O)[C@@H]4CC[C@H]3C4)cn2)cc1NCc1c(F)ccc(F)c1F` [Example 12-78] was tested. Which IC50 did it give?
The IC50 was 0.69 nM.

With `NC(=O)c1cnc(Nc2ccc(N3CCCCCC3=O)cn2)cc1NCc1c(F)ccc(F)c1F` [Example 12-79] as the compound, how does the IC50 read?
The IC50 was 0.79 nM.

How did the IC50 turn out when `NC(=O)c1cnc(Nc2ccc(N3C(=O)[C@H]4CC[C@@H]3C4)cn2)cc1NCc1c(F)ccc(F)c1F` [Example 12-80] was run?
Its IC50 is 0.69 nM.

How did the IC50 turn out when `NC(=O)c1cnc(Nc2ccc(N3CCOCCC3=O)cn2)cc1NCc1c(F)ccc(F)c1F` [Example 12-81] was run?
The IC50 was 0.56 nM.

For `CN1C(=O)N(c2ccc(Nc3cc(NCc4c(F)ccc(F)c4F)c(C(N)=O)cn3)nc2)C(=O)C1(C)C` [Example 12-91], which IC50 is on record?
Its IC50 is 0.44 nM.

With `CN1CCC(=O)N(c2ccc(Nc3cc(NCc4c(F)cccc4F)c(C(N)=O)cn3)nc2)CC1` [Example 12-97] as the compound, how does the IC50 read?
Its IC50 is 0.25 nM.
